From US3946000A, “7-[α-(2-Aminomethyl-1-cyclohexenyl)-acetamido]-3-heterocyclic thiomethyl-3-cephem-4-carboxylic acids” (Bristol-Myers Company, priority 1973, dated 1976)
Converted amounts (≈) assume the structure as drawn. “And” between values parts separate entries of the source, which are not always exact repeats. Identical values can stand only once. Like-named read-outs stand apart in the source and are kept apart here.

Tests used:
[1] = Solubility in 0.1 M pH 7.0 phosphate buffer (bioassay and UV-assay); type: physicochemical; conditions: for solubility at 4 h: 0.1 m phosphate buffer, pH 7, aqueous buffer
Procedure: *Stirred at 25° C. for 4 hours in 0.1 M pH 7.0 phosphate
buffer--filtered through Milipore filter (0.45 μ)--assayed
spectroscopically against its own standard.
The test solution and the standard solution are prepared as described below.
About 10 mg. (1) of a sample is placed in a vial and mixed with 1 ml. of 0.1 M phosphate buffer (pH 7.0). The vial is stoppered, sealed with a metal cap, placed on a rotary shaker and agitated at 160 rpm for 4 hr. at 25° C. The solution is filtered through a Millipore filter (HAWP 01300, mean pore size 0.45 μm). The filtrate is diluted to use for bioassay and UV assay as follows:
About 2 mg. of the same sample is weighed precisely and dissolved in 4 ml. of 1% K2 CO3 solution^(3) (usually within one minute). The solution is diluted exactly to 50 ml. in a flask with 0.1 M pH 7.0 phosphate buffer and used for the preparation of the standard solutions for bioassay and UV-assay as follows:
(1) A 20 mg. or more sample is used when the sample is expected to be more soluble.
(2) 0.1 M pH 7.0 phosphate buffer is used as a diluent in the present test and also as a reference solution in UV-assay.
(3) It was previously confirmed that almost the same result is obtained when the sample is solubilized in DMSO (dimethylsulfoxide) and then diluted similarily with the buffer.
(4) Volume of the solution is measured precisely with an appropriate pipette or flask.
BA: Bioassay, UV: UV-assay Results given for the same compound on different lines were obtained using samples from different lots.

Water solubility = type: physicochemical; conditions: sodium salt
Mycobacterium 607 = experiment: M.I.C. by Tube Dilution, Mycobacterium 607; type: cell-based; conditions: overnight at 37° C.
E. coli NIHJ = experiment: M.I.C. by Tube Dilution, E. coli NIHJ; type: cell-based; conditions: Escherichia coli, overnight at 37° C.
Str. pyogenes A9604 = experiment: M.I.C. by Tube Dilution, Str. pyogenes A9604; type: cell-based; conditions: Streptococcus pyogenes; Str. pyogenes A9604 + 5% serum; 50% Nutrient Broth - 45% Antibiotic Assay Broth; overnight at 37° C.
S. aureus BX1633 A9606 = experiment: M.I.C. by Tube Dilution, S. aureus BX1633 A9606; type: cell-based; conditions: Staphylococcus aureus, BX1633A9606, S. aureus BX1633 A9606; Nutrient Broth, overnight at 37° C.
Pr. mirabilis A9900 = experiment: M.I.C. by Tube Dilution, Pr. mirabilis A9900; type: cell-based; conditions: Proteus mirabilis, 10^-4 dilution, overnight at 37° C.
K. pneumoniae A9977 = experiment: M.I.C. by Tube Dilution, K. pneumoniae A9977; type: cell-based; conditions: Klebsiella pneumoniae, 10^-4 dilution, overnight at 37° C.
Ser. marcescens A20019 = experiment: M.I.C. by Tube Dilution, Ser. marcescens A20019; type: cell-based; conditions: Serratia marcescens, 10^-4 dilution, overnight at 37° C.
D. pneumoniae A9585 = experiment: M.I.C. by Tube Dilution, D. pneumoniae A9585; type: cell-based; conditions: Streptococcus pneumoniae, A9585, D. pneumoniae A9585 + 5% serum; 50% Nutrient Broth - 45% Antibiotic Assay Broth; overnight at 37° C.
E. coli Juhl A15119 = experiment: M.I.C. by Tube Dilution, E. coli Juhl A15119; type: cell-based; conditions: Escherichia coli, JUHLA15119, 10^-4 dilution, overnight at 37° C.
Sal. enteritidis A9531 = experiment: M.I.C. by Tube Dilution, Sal. enteritidis A9531; type: cell-based; conditions: Salmonella enterica, 10^-4 dilution, overnight at 37° C.
K. pneumoniae A15130 = experiment: M.I.C. by Tube Dilution, K. pneumoniae A15130; type: cell-based; conditions: Klebsiella pneumoniae, 10^-4 dilution, overnight at 37° C.
E. coli ATCC 8739 = experiment: M.I.C. by Tube Dilution, E. coli ATCC 8739; type: cell-based; conditions: Escherichia coli, ATCC8739, overnight at 37° C.
S. aureus Russel = experiment: M.I.C. by Tube Dilution, S. aureus Russel; type: cell-based; conditions: Staphylococcus aureus, Nutrient Broth, overnight at 37° C.
S. aureus Smith A9537 = experiment: M.I.C. by Tube Dilution, S. aureus Smith A9537; type: cell-based; conditions: Staphylococcus aureus, 10^-4 dilution, overnight at 37° C.
Ps. aeruginosa A9843 = experiment: M.I.C. by Tube Dilution, Ps. aeruginosa A9843; type: cell-based; conditions: Pseudomonas aeruginosa, 10^-4 dilution, overnight at 37° C.
Pr. morganii A15153 = experiment: M.I.C. by Tube Dilution, Pr. morganii A15153; type: cell-based; conditions: Morganella morganii, 10^-4 dilution, overnight at 37° C.
S. aureus BX-1633 = experiment: Minimum curative dose in infected mice, S. aureus BX-1633; type: in vivo; conditions: Staphylococcus aureus, BX1633, sc; subcutaneous, mice infected with lethal dose of S. aureus BX-1633; read-out: CD50 (minimum curative dose for 50% of the mice)
E coli Juhl = experiment: Minimum curative dose in infected mice, E coli Juhl; type: in vivo; conditions: Mus musculus, sc; subcutaneous, mice infected with lethal dose of E coli Juhl; read-out: CD50 (minimum curative dose for 50% of the mice)
[2] = 0.1 M phosphate buffer (pH 7.0), 4 hr. at 25° C., UV-assay, read-out: Solubility, UV (UV-assay)
[3] = 0.1 M phosphate buffer (pH 7.0), 4 hr. at 25° C., bioassay, read-out: Solubility, BA (bioassay)
[4] = stirred at 25° C. for 4 hours in 0.1 M pH 7.0 phosphate buffer, assayed spectroscopically against its own standard, read-out: Solubility

## NCc1ccccc1CC(=O)NC1C(=O)N2C(C(=O)O)=C(CSc3ccc4nnnn4n3)CSC12 (centres unmarked) [BB-S226, reference compound]
[1]; 0.1 M phosphate buffer (pH 7.0), 4 hr. at 25° C., UV-assay, 240 min
  Solubility, UV (UV-assay): 2100 µg/mL and 3500 µg/mL and 2200 µg/mL
[1]; [2]
  solubility at 4 h: 2500 µg/mL (≈ 4880 µM)
[1]; [3]
  solubility at 4 h: 3800 µg/mL (≈ 7410 µM)
[1]; [4]
  solubility at 4 h: 3500 µg/mL (≈ 6830 µM)

## NCC1=C(CC(=O)NC2C(=O)N3C(C(=O)O)=C(CSc4ccc(O)nn4)CS[C@H]23)CCCC1 (stereo partly drawn) [Example 1, 7-[α-(2-aminomethyl-1-cyclohexenyl)acetamido]-3-(6-hydroxypyridazin-3-ylthiomethyl)-3-cephem-4-carboxylic acid]
[1]; [2]
  solubility at 4 h: 16000 µg/mL (≈ 32500 µM)
[1]; [3]
  solubility at 4 h: 16800 µg/mL (≈ 34200 µM)
[1]; [4]
  solubility at 4 h: 16000 to 16800 µg/mL (≈ 32500 to 34200 µM)

## Cn1nnnc1SCC1=C(C(=O)O)N2C(=O)C(NC(=O)CC3=C(CN)CCCC3)C2SC1 (centres unmarked) [Example 15]
Water solubility
  solubility: > 250000 µg/mL

## NCC1=C(CC(=O)NC2C(=O)N3C(C(=O)O)=C(CSc4ccc5nnc(O)n5n4)CSC23)CCCC1 (stereo not drawn) [Example 5, 7-[α-(2-Aminomethyl-1-cyclohexenyl)acetamido]-3-(3-hydroxypyridazino-[3,2-c]-3-triazol-6-ylthiomethyl)-3-cephem-4-carboxylic acid]
[1]; [2]
  solubility at 4 h: 8100 µg/mL (≈ 15200 µM)
[1]; [3]
  solubility at 4 h: 8000 µg/mL (≈ 15000 µM)
[1]; [4]
  solubility at 4 h: 8000 µg/mL (≈ 15000 µM)

## Cc1nnc(SCC2=C(C(=O)O)N3C(=O)C(NC(=O)Cc4ccccc4CN)C3SC2)s1 (centres unmarked) [MR-S96, reference compound]
[1]; [2]
  solubility at 4 h: 900 µg/mL (≈ 1830 µM)
[1]; [3]
  solubility at 4 h: 1200 µg/mL (≈ 2440 µM)
[1]; [4]
  solubility at 4 h: 900 µg/mL (≈ 1830 µM)

## Cn1nnnc1SCC1=C(C(=O)O)N2C(=O)C(NC(=O)CC3=C(CN)CCCC3)[C@H]2SC1 (some centres unmarked) [Example 3, 7-[(2-aminomethyl-1-cyclohexen-1-yl)acetamido]-3-(1-methyltetrazol-5-ylthiomethyl)-3-cephem-4-carboxylic acid]
[1]; 0.1 M phosphate buffer (pH 7.0), 4 hr. at 25° C., UV-assay, listed as BB-S336, 240 min
  Solubility, UV (UV-assay): 26000 µg/mL (≈ 54200 µM)
[1]; 0.1 M phosphate buffer (pH 7.0), 4 hr. at 25° C., bioassay, listed as BB-S336, 240 min
  Solubility, BA (bioassay): 23000 µg/mL (≈ 48000 µM)
[1]; [2]
  solubility at 4 h: 24600 µg/mL (≈ 51300 µM)
[1]; [3]
  solubility at 4 h: 25600 µg/mL (≈ 53400 µM)
[1]; [4]
  solubility at 4 h: 23000 to 26000 µg/mL (≈ 48000 to 54200 µM)
Mycobacterium 607
  MIC: > 100 µg/mL
E. coli NIHJ
  MIC: 1.6 to 3.1 µg/mL (≈ 3.34 to 6.46 µM)
Str. pyogenes A9604
  MIC: 0.04 to 0.08 µg/mL
S. aureus BX1633 A9606
  MIC: 1.6 µg/mL (≈ 3.34 µM)
Pr. mirabilis A9900
  MIC: 100 µg/mL (≈ 209 µM)
K. pneumoniae A9977
  MIC: 0.8 to 3.1 µg/mL (≈ 1.67 to 6.46 µM)
Ser. marcescens A20019
  MIC: > 100 µg/mL
D. pneumoniae A9585
  MIC: 0.04 to 0.08 µg/mL
E. coli Juhl A15119
  MIC: 3.1 to 6.3 µg/mL (≈ 6.46 to 13.1 µM)
Sal. enteritidis A9531
  MIC: 1.6 to 3.1 µg/mL (≈ 3.34 to 6.46 µM)
K. pneumoniae A15130
  MIC: 3.1 to 6.3 µg/mL (≈ 6.46 to 13.1 µM)
E. coli ATCC 8739
  MIC: 3.1 to 6.3 µg/mL (≈ 6.46 to 13.1 µM)
S. aureus Russel
  MIC: 0.4 to 0.8 µg/mL (≈ 0.834 to 1.67 µM)
S. aureus Smith A9537; SMITHA9537, S. aureus Smith A9537 + 50% serum
  MIC: 0.8 to 1.6 µg/mL
S. aureus Smith A9537; SMITHA9537, S. aureus Smith A9537, Nutrient Broth
  MIC: 0.2 to 0.4 µg/mL (≈ 0.417 to 0.834 µM)
Ps. aeruginosa A9843
  MIC: > 100 µg/mL
Pr. morganii A15153
  MIC: > 100 µg/mL
S. aureus BX-1633
  ED50: 2.4 mg/kg
E coli Juhl
  ED50: 5.4 mg/kg
